Test results as given in the NIST ThermoML archive (doi:10.1016/j.jct.2016.06.034).
Numbers after ± are expanded uncertainties.

Experiment: mn = molality of the nth substance listed, in mol/kg
Details: for electrical conductivity / speed of sound / mass density: 84.5 kPa, Liquid; for electrical conductivity: Alternating current cell with electrodes; for speed of sound: Frequency=3 MHz, Sing-around technique in a fixed-path interferometer; for mass density: Vibrating tube method; for surface tension liquid-gas: platinum plate method

CCCCCCCCCCn1cc[n+](C)c1.[Br-] [1-decyl-3-methylimidazolium bromide] + O
Details | electrical conductivity [S/m] | mass density [kg/m3] | speed of sound [m/s] | surface tension liquid-gas [mN/m]
293.15 K, m1 = 0.00228 | 0.0203 ± 0.0039 | – | – | –
293.15 K, m1 = 0.00309 | 0.0273 ± 0.0038 | – | – | –
293.15 K, m1 = 0.00382 | 0.0335 ± 0.0036 | – | – | –
293.15 K, m1 = 0.00535 | 0.0458 ± 0.0035 | – | – | –
293.15 K, m1 = 0.00813 | 0.0678 ± 0.0035 | – | – | –
293.15 K, m1 = 0.0095 | – | 998.589 ± 0.11 | 1484.6 ± 1.2 | –
293.15 K, m1 = 0.01113 | 0.0909 ± 0.0035 | – | – | –
293.15 K, m1 = 0.01379 | – | 998.766 ± 0.11 | 1485.5 ± 1.2 | –
293.15 K, m1 = 0.01397 | 0.112 ± 0.0036 | – | – | –
293.15 K, m1 = 0.01652 | – | 998.876 ± 0.11 | 1486.1 ± 1.2 | –
293.15 K, m1 = 0.01667 | 0.132 ± 0.0036 | – | – | –
293.15 K, m1 = 0.01935 | 0.152 ± 0.0036 | – | – | –
293.15 K, m1 = 0.02179 | – | 999.09 ± 0.11 | 1487.2 ± 1.2 | –
293.15 K, m1 = 0.02193 | 0.17 ± 0.0037 | – | – | –
293.15 K, m1 = 0.02449 | 0.187 ± 0.0037 | – | – | –
293.15 K, m1 = 0.02615 | – | 999.268 ± 0.11 | 1488 ± 1.2 | –
293.15 K, m1 = 0.02695 | 0.204 ± 0.0038 | – | – | –
293.15 K, m1 = 0.02918 | 0.219 ± 0.0039 | – | – | –
293.15 K, m1 = 0.03106 | – | 999.467 ± 0.11 | 1489 ± 1.2 | –
293.15 K, m1 = 0.0311 | 0.231 ± 0.004 | – | – | –
293.15 K, m1 = 0.03299 | 0.243 ± 0.0041 | – | – | –
293.15 K, m1 = 0.03338 | – | 999.559 ± 0.11 | 1489.4 ± 1.2 | –
293.15 K, m1 = 0.03499 | 0.256 ± 0.0041 | – | – | –
293.15 K, m1 = 0.03691 | 0.269 ± 0.0042 | – | – | –
293.15 K, m1 = 0.03819 | – | 999.755 ± 0.11 | 1490.3 ± 1.2 | –
293.15 K, m1 = 0.03912 | 0.282 ± 0.0043 | – | – | –
293.15 K, m1 = 0.0406 | – | 999.853 ± 0.11 | 1490.5 ± 1.2 | –
293.15 K, m1 = 0.04083 | 0.292 ± 0.0043 | – | – | –
293.15 K, m1 = 0.0425 | 0.3 ± 0.0041 | – | – | –
293.15 K, m1 = 0.04332 | – | 999.954 ± 0.11 | 1490.9 ± 1.2 | –
293.15 K, m1 = 0.04369 | 0.305 ± 0.004 | – | – | –
293.15 K, m1 = 0.04545 | 0.311 ± 0.004 | – | – | –
293.15 K, m1 = 0.04614 | – | 1000.06 ± 0.11 | 1491.1 ± 1.2 | –
293.15 K, m1 = 0.04751 | 0.317 ± 0.004 | – | – | –
293.15 K, m1 = 0.04952 | 0.323 ± 0.0041 | – | – | –
293.15 K, m1 = 0.05149 | 0.327 ± 0.004 | – | – | –
293.15 K, m1 = 0.05344 | 0.332 ± 0.0041 | – | – | –
293.15 K, m1 = 0.05515 | – | 1000.37 ± 0.11 | 1491.4 ± 1.2 | –
293.15 K, m1 = 0.05532 | 0.336 ± 0.0042 | – | – | –
293.15 K, m1 = 0.058 | 0.342 ± 0.0042 | – | – | –
293.15 K, m1 = 0.05963 | 0.345 ± 0.0044 | – | – | –
293.15 K, m1 = 0.06396 | – | 1000.67 ± 0.11 | 1491.6 ± 1.2 | –
293.15 K, m1 = 0.07815 | – | 1001.15 ± 0.11 | 1491.8 ± 1.2 | –
293.15 K, m1 = 0.122 | – | 1002.6 ± 0.11 | 1492.4 ± 1.2 | –
293.15 K, m1 = 0.1726 | – | 1004.24 ± 0.11 | 1493 ± 1.2 | –
293.15 K, m1 = 0.2247 | – | 1005.89 ± 0.11 | 1493.8 ± 1.2 | –
293.15 K, m1 = 0.2539 | – | 1006.79 ± 0.11 | 1494.1 ± 1.2 | –
298.15 K, m1 = 1e-05 | 0.000165 | – | – | –
298.15 K, m1 = 3e-05 | 0.00031 | – | – | –
298.15 K, m1 = 4e-05 | 0.000454 | – | – | –
298.15 K, m1 = 5e-05 | 0.000592 | – | – | –
298.15 K, m1 = 7e-05 | 0.000739 | – | – | –
298.15 K, m1 = 0.0001 | 0.00103 | – | – | –
298.15 K, m1 = 0.00012 | 0.00132 | – | – | –
298.15 K, m1 = 0.00018 | 0.00193 | – | – | –
298.15 K, m1 = 0.00025 | 0.00268 ± 0.0045 | – | – | –
298.15 K, m1 = 0.0004 | 0.00418 ± 0.0045 | – | – | –
298.15 K, m1 = 0.0006 | 0.00622 ± 0.0044 | – | – | –
298.15 K, m1 = 0.00096 | 0.00987 ± 0.0044 | – | – | –
298.15 K, m1 = 0.00171 | 0.0172 ± 0.0044 | – | – | –
298.15 K, m1 = 0.00264 | 0.0265 ± 0.0043 | – | – | –
298.15 K, m1 = 0.00371 | 0.0368 ± 0.0042 | – | – | –
298.15 K, m1 = 0.00412 | – | – | – | 54.68 ± 0.36
298.15 K, m1 = 0.00504 | 0.0494 ± 0.0043 | – | – | –
298.15 K, m1 = 0.00703 | 0.0685 ± 0.0041 | – | – | –
298.15 K, m1 = 0.00741 | – | – | – | 50.92 ± 0.5
298.15 K, m1 = 0.00984 | 0.0933 ± 0.004 | – | – | –
298.15 K, m1 = 0.01142 | – | – | – | 47.08 ± 0.4
298.15 K, m1 = 0.01267 | 0.117 ± 0.004 | – | – | –
298.15 K, m1 = 0.01525 | 0.139 ± 0.004 | – | – | –
298.15 K, m1 = 0.01559 | – | – | – | 43.86 ± 0.36
298.15 K, m1 = 0.01793 | 0.16 ± 0.004 | – | – | –
298.15 K, m1 = 0.01865 | – | – | – | 42.13 ± 0.34
298.15 K, m1 = 0.02048 | 0.181 ± 0.0041 | – | – | –
298.15 K, m1 = 0.023 | 0.201 ± 0.0042 | – | – | –
298.15 K, m1 = 0.02466 | – | – | – | 39.8 ± 0.24
298.15 K, m1 = 0.02535 | 0.219 ± 0.0043 | – | – | –
298.15 K, m1 = 0.02772 | 0.237 ± 0.0044 | – | – | –
298.15 K, m1 = 0.02893 | – | – | – | 38.51 ± 0.22
298.15 K, m1 = 0.02961 | 0.251 ± 0.0045 | – | – | –
298.15 K, m1 = 0.03171 | 0.267 ± 0.0045 | – | – | –
298.15 K, m1 = 0.03351 | – | – | – | 37.65 ± 0.21
298.15 K, m1 = 0.03974 | – | – | – | 37.31 ± 0.2
298.15 K, m1 = 0.04641 | – | – | – | 37.49 ± 0.21
298.15 K, m1 = 0.05292 | – | – | – | 38.51 ± 0.21
298.15 K, m1 = 0.05743 | – | – | – | 38.59 ± 0.2
298.15 K, m1 = 0.06462 | – | – | – | 38.74 ± 0.2
298.15 K, m1 = 0.0747 | – | – | – | 38.93 ± 0.2
298.15 K, m1 = 0.0901 | – | – | – | 38.82 ± 0.21
298.15 K, m1 = 0.1219 | – | – | – | 38.81 ± 0.21
298.15 K, m1 = 0.1645 | – | – | – | 38.91 ± 0.21
